The EC50 is the midpoint of the concentration-response curve.

In series [1] the test system is porcine subcutaneous arteries. The series can be described thus: Ex vivo vasorelaxation of U46619-preconstricted arteries (wire myograph). On the set-up: species or system pig. Conditions: isolated porcine subcutaneous arteries preconstricted with U46619 (1 μM); for Effect on vascular tone (vasorelaxation): niacinamide at 200 mM, 1-methyl-niacinamide cumulative concentrations, two animals. On the procedure:
Vessels were cut into 1.5 mm cylindrical segments, threaded onto two 40 μm diameter stainless steel wires and mounted on a Mulvany-Halpern myograph (Danish Myograph Technology, A/S). […] Contractile force was recorded via a PowerLab unit and Labchart software (AD Instruments). Vessels were pre-stretched in calcium-free PSS to a lumen diameter of 0.9 × L100, where L100 is an estimate of the diameter of the vessel under a passive transmural pressure of 100 mmHg. This was performed using the normalization module in LabChart7.

The subject of series [2] is skin perfusion. In words: Laser speckle contrast analysis (LASCA) of skin perfusion in pigs. The class given is in vivo, pig. Conditions: anesthetized pigs, intradermal injection in neck, niacinamide 170 mM, 1-methyl-niacinamide 170 mM, prostaglandin E1 10 μg/ml, 0–15 min, n=4. As for the experimental part:
Formulations of prostaglandin E1 (10 μg/ml), niacinamide (170 mM) or saline were injected intradermally in the neck area of anesthetized pigs. A PeriCam PSI system (Perimed, Sweden) was used to record one image per second for approximately 15 min. Perfusion units per min were compared using one-way ANOVA.
Niacinamide increases subcutaneous blood flow in pigs
Video: Representative LASCA perfusion experiment.
LASCA images were recorded following intradermal injection of saline, prostaglandin E1 and niacinamide formulations into the neck area of anesthetized pigs. Saline (170 mM NaCl, 10 mM phosphate, pH 7.4) was injected into region 1 (blue) and 6 (black), 10 µg/ml prostaglandin E1 (170 mM NaCl, 10 mM phosphate, pH 7.4) was injected into region 2 (red), 170 mM niacinamide (85 mM NaCl, 10 mM phosphate, pH 7.4) was […]
was necessary). Compound x (region 4, dark red) was an additional compound studied for vasodilation but is not included in the present analysis.
(1 picture or pasted object on this page, not shown here)

A short description of series [3]: Disappearance of niacinamide and 1-methyl-niacinamide from subcutaneous injection depots in pigs (tissue sampling, LC-MS/MS). The conditions noted are these: 170 mM, 50 μl, LC-MS/MS of tissue homogenate, n=9.
Description: Pigs (70–90 kg) were anesthetized using Zoletil mixture (1 mg/10 kg; Virbac, Denmark) with intravenous supplement of propolipid (Fresenius Kabi, Sweden). […] Tissue samples measuring ~2 x 2 cm were excised at 0 min (acute), 2, 5, 15 or 60 min after injection and immediately frozen in 2-methyl-butane. […] Following euthanasia by overdose of pentobarbital (Lundbeck, Denmark), tissue samples measuring ~10 x 10 cm were excised and injected to obtain ex vivo 0 min (acute) and 60 min depots.
Tissue samples were cut into smaller blocks, thawed and diluted with phosphate buffer (180 mM; pH 7.4) at a ratio of 3 ml to 1 g of tissue. Tissue was homogenized with two cycles (one cycle consisting of 10 sec homogenization, 60 sec pause, 10 sec homogenization) at 8800 rpm (Precellys Evolution homogenizer, Bertin Instruments, France) or until the sample was considered homogenized.
Protein was precipitated from the tissue homogenate by adding three volumes of acetonitrile. Samples were centrifuged for 30 min at 4°C and the supernatants analyzed on a QTRAP® Triple Quadrupole coupled with an Acquity liquid chromatography system (Waters, USA).
For series [4], the system named is skin perfusion. The series can be described thus: Laser Doppler imaging (LDI) of skin perfusion in pigs. The conditions noted are these: anesthetized pigs, subcutaneous injection at 3 mm depth, niacinamide 170 mM, prostaglandin E1 10 μg/ml, baseline corrected, n=4. The class given is in vivo, pig. As for the experimental part: LDI (moorLDI2-IR, Moor Instruments, UK) was used to record a series of images (approximately one image per 3.5 min for approximately 30 min) following a protocol in anesthetized pigs similar to the one used for LASCA. Due to the increased skin penetration depth of the LDI system, subcutaneous injections were performed at a 3 mm depth using a 32G needle. Injections were performed in areas that could be scanned in the same image.

Series [5] deals with regional subcutaneous blood flow. In words: Xenon-133 washout after injection into the neck of pigs. The format is in vivo, pig. Conditions: vehicle without insulin aspart, niacinamide 170 mM (n=21), prostaglandin E1 4 μg/ml (n=8), mean (±SD), saline –0.71. On the procedure:
For each experiment, an insulin aspart containing vehicle was injected on one side of a pig, while the same vehicle without insulin aspart was injected into the other side. Prostaglandin E1 was included as a positive control. A gamma sensor was mounted over each injection site to measure the decay in Xe-133 signal. […] Regression line slopes in the 0–15 min interval were compared using one-way analysis of variance (ANOVA).

Entries after “also recorded” stand apart in the source; their conditions may differ.

For `C[n+]1cccc(C(N)=O)c1` [1-methyl-niacinamide], the “Effect on vascular tone (vasorelaxation)” value in series [1] is given as “no substantial effect on vascular tone; also recorded: vasorelaxation was not detected”. In series [2], the “Skin perfusion by LASCA compared with saline” value is “did not increase the LASCA signal”.
`NC(=O)c1cccnc1` [niacinamide]: the “Amount remaining in subcutaneous depot 60 min post-injection” value in series [3] is “decreased to amounts comparable to the blank control”. Further, the “Skin perfusion by LDI compared with saline” value in series [4] is “increased skin perfusion”. In series [1] (Sus scrofa, sc, cumulative 1 μM–200 mM, PSS 37°C pH 7.4, six animals), this compound came in with an EC50 of 11.3 mM. Also, the “Effect on vascular tone (vasorelaxation)” value in series [1] is “maximal vasorelaxation”. Moreover, in series [2], the “Skin perfusion by LASCA compared with saline” value is “intermediate increase”. Further, in series [5], the “Xe-133 washout regression line slope, 0–15 min interval” value is listed as “–1.24 % per min”.
Regarding `CCCCC[C@H](O)/C=C/[C@H]1[C@H](O)CC(=O)[C@@H]1CCCCCCC(=O)O` [prostaglandin E1], the “Skin perfusion by LDI compared with saline” value in series [4] is listed as “increased skin perfusion”. Further, in series [2], the “Skin perfusion by LASCA compared with saline” value is “clear increase in skin perfusion”. Further, the “Xe-133 washout regression line slope, 0–15 min interval” value in series [5] is recorded as “–2.47 % per min”.

These data come from paper PMC6373292 (Pharmaceutical Research, 2019).
